Each structure is given as a SMILES string. Read-outs that look alike come from different tables or passages of the source.

What all share (type): cell-based
In experiment [1] the test system is 5-HETE biosynthesized by glycogen-stimulated polymorphonuclear leucocytes (PMNs). Put plainly: Hydroxyacid Profile Assay (HPA): inhibition of 5-HETE synthesis in glycogen-elicited rabbit PMNs. Conditions: Oryctolagus cuniculus, Leucocyte; for inhibition at 100 µM: read-out: Percent Inhibition (100 μM); for IC50: read-out: IC50 (50% inhibition of 5-HETE synthesis). On the procedure:
As previously noted 5-HETE biosynthesis serves as a marker for arachidonic acid metabolism via the 5-lipoxygenase pathway which produces (poly)hydroxyeicosatetraenoic acids and the potent bronchoconstrictor and vasoactive leukotrienes LTC4, LTD4 and LTE4.
Buffer A (8.70 g NaCl; 0.27 g KCl; 0.42 g Na2 HPO4; 0.76 g KH2 PO4; and 1.00 g dextrose per liter H2 O; pH 7.0) (0.325 ml) is introduced into each of a battery of screwtop culture tubes. Then, a solution of a compound (0.100 ml) to be assayed is dispensed into individual tubes. Assays are performed in duplicate at 100 μM and 10 μM concentrations. Control tubes receive Buffer A (0 100 ml) in lieu of compound. Next, rabbit PMNs (2×10^7 cells/tube; 4×10^7cells/ml) (0.500 ml) are added to each tube. The rabbit PMN's used are elicited with glycogen and made into a preparation substantially as described by F. Hirata. et al (1979) Proc. Natl. Acad. Sci. USA, 76, 2640-2643. The tubes are vortexed and preincubated in a shaking 37° C. water bath for 15 minutes.
Thereafter, the tubes are removed from the water bath and calcium ionophore solution (400 μg/ml A-23187; Sigma Chemical Co., St. Louis, Mo.) (0.025 ml), ^14 C-arachidonic acid (0.25 μCi in 0.025 ethanol; New England Nuclear Products, Boston, Mass.) (0.025 ml) and calcium chloride solution (CaCl2.2H2 O ); 105.8 mg/10 […]) (0.025 ml) are added in that order. The tubes are vortexed and returned to the water bath for 30 minutes. The reaction is then terminated by the addition of HCl (0.8N, 0.025 ml).
Extraction and concentration of ^14 C-labeled 5-HETE is performed as follows. First, solution containing 2 parts ethyl acetate, 3 parts CH2 Cl2 and 0.01 ml unlabeled arachidonic acid is added (5.01 ml) to each tube. The tubes are capped and briefly vortexed. The contents of each tube is poured into a polypropylene column fitted with a porous polyethylene disc and Whatman phase separation filter paper. The organic phase is collected by gravity filtration into a conical centrifuge tube, While the aqueous phase is retained in the column by the phase separation paper. Each culture tube is rinsed once with the EtOAc:CH2 Cl2 solution (1.0 ml) and the wash added to the column. The organic phase is concentrated to (0.5 ml) using a Savant Speed Vac concentrator (Savant Instruments, Inc., Hicksville, N.Y.).
After concentration of the organic phase, the tubes are vortexed and stored covered on ice. An aliquot (0.01 ml) is then removed for liquid scintillation counting in a Beckman LS7500 Liquid Scintillation Counter (Beckman Instruments Corp., Fullerton, Calif.). Based on the count, the number of μl containing 1×10^5 cpm is calculated. This volume is applied to a silica gel covered glass plate in a 10 mm streak. The remaining fluid in the tube is measured via syringe and noted.
The TLC plate is placed in a chromatography chamber containing the following solvent system: CHCl3 :MeOH:HOAc:H2 O (v/v;90: 9:1:0.65). The plate is then air dried and counted on a Berthold Linear TLC Analyzer (Berthold Instruments, Inc., Pittsburgh, Pa.) for 30 minutes per lane if a dose response curve had been run, or for 5 min per lane if drug screening had been done. The integrated area of the 5-HETE band for each compound is converted to percent of control and analyzed. The percent inhibition at 100 μM compound concentration and the concentration (μM) which produces a 50% inhibition of 5-HETE synthesis (IC50), are determined for those compounds described in Examples 1-36, and are reported in Table 1 .

Experiment [2] concerns guinea pig ileal strips. Put plainly: Modified Schultz-Dale Assay: inhibition of antigen-induced anaphylactic contraction of passively sensitized ileal strips. To be noted: Cavia porcellus, **tested at 20 μg/ml.
In experiment [3] the test system is guinea pig ileal strips. The experiment is described as above. Conditions: Cavia porcellus; for IC50: value in parentheses. The method, then: In the classic Schultz-Dale assay, guinea pigs are sensitized with a known immunogen or passively sensitized with guinea pig antiserum to the immunogen, strips of ilea are recovered, and the extent of their contraction in response to a challenge exposure to the same antigen is observed as a measure of anaphylactic response. The experiments described here follow this same procedure while exposing the ileal strips to test compound before exposure to antigen challenge (preincubation) and, in some strips, also after antigen challenge (postincubation).
The male Hartley strain guinea pigs (450-650 g) whose ilea are used in this Schultz-Dale assay are passively sensitized with IgE antiovalbumin antiserum as follows. The antiserum is developed in another group of similar guinea pigs as described in Graziano, et al., J. Immunol. 127:1067-1070 (1981) and pooled. The test animals are then each passively sensitized by subcutaneous injection of the pooled antiserum (1 ml).
About 2-7 days after sensitization, the guinea pigs are sacrificed and the terminal ilea are removed. They are cut into strips (6 cm) and positioned in tissue baths (5 ml) of Tyrode's solution with atropine (1 μg/ml) at 37° C. One end of each strip is fixed to an immobile post and the other movably mounted to a Grass Ft. 0.03 linear force displacement transducer and a Grass Model 7 polygraph. The tension is set (at 1 gram) and the tissue is allowed to equilibrate (10 minutes). Tissue viability is tested by establishing a consistent response to histamine (0.5 μg/ml). After several histamine-induced contractions, mepyramine (1 μg/ml) is added to inhibit any contractions due to the anaphylactic release of endogenous histamine.
A minimum of 3 animals are used for each compound tested and, of the 6 strips from each animal, 2 strips are incubated (preincubation) with a test compound (final concentration 75 μM), 2 with an appropriate reference standard (BW-755C at 75 μM) and 2 with saline solution (control) for a predetermined period (5 minutes). After this initial incubation period, ovalbumin (100 μg/ml) is added to each bath and the resulting anaphylactic contraction measured. The data are recorded as of tension produced by the tissue in excess of the 1 gram tension that was initially set. At the peak of the contraction, a dose of the same test compound (75 μM) is added (postincubation) to one control strip and reference standard (FPL-55712 at 1.9 μM). The strips are monitored (1 minute) and any effect on the established contraction is recorded as described above.
Two types of data are derived from the above protocol. First, pre-antigen inhibition (prechallenge) is expressed as the percent inhibition in each of the strips preincubated with test compound measured against the averaged contractions of the two control strips. Prechallenge inhibition by the reference standard is also determined in each experiment as a positive control. The reference used consistently gives 60-80% inhibition. Second, post-antigen inhibition (postchallenge) is determined by measuring the decrease in anaphylactic contraction of a control strip produced by adding either a test compound or standard at the peak of the contraction. The reference used consistently gives 70-90% inhibition. The data in each experiment, therefore, consists of 2 prechallenge and 1 postchallenge value for both test compound and standard.

Setting [4] is: added at peak of contraction after antigen, read-out: Postchallenge mean percent inhibition.
The mark [5] stands for this setting: preincubation before ovalbumin antigen, read-out: Prechallenge mean percent inhibition.
Setting [6] is: added at peak of contraction after antigen, read-out: Postchallenge IC50.
Setting [7] is: preincubation before ovalbumin antigen, read-out: Prechallenge IC50.

As a reminder, the inhibition is the relative decrease from the control value, in per cent. As for `Cc1ccc(C(=O)CCCCC(=O)O)cc1` [Example 21, 5-(4-Methylbenzoyl)pentanoic acid], the inhibition at 10 µM in experiment [1] (at 10 μM, 5-HETE synthesis, read-out: Percent Inhibition) turned out to be 0%. Also, the figures for the inhibition at 20 µg/mL in the experiment on guinea pig ileal strips [2] (setting [4]) and in the experiment with guinea pig ileal strips [2] (setting [5]) were 11% and 29%, respectively.
As to `CCCCCCCCCCc1ccc(C(=O)CCCCC(=O)O)cc1` [Example 10, 5-(4-n-Decylbenzoyl)pentanoic acid], in experiment [1] (5-HETE synthesis), the inhibition at 100 µM was found to be 88%. The values for the inhibition at 20 µg/mL in the experiment with guinea pig ileal strips [2] (setting [4]) and with guinea pig ileal strips [2] (setting [5]) were 11% and 7%, respectively.
What is called IC50 is the concentration that gives 50% inhibition. Regarding `CCCCCCCc1ccc(C(=O)CCCCC(=O)O)cc1` [Example 1, 5-(4-n-Heptylbenzoyl)pentanoic acid], the inhibition at 100 µM in experiment [1] (5-HETE synthesis) was determined as 78%. The IC50 turned out to be 30 µM in experiment [1], 48 µM in the experiment on guinea pig ileal strips [3] (setting [6]) and 27 µM in the experiment with guinea pig ileal strips [3] (setting [7]). Moreover, the inhibition at 20 µg/mL in the experiment with guinea pig ileal strips [2] (setting [4]) stood at 68%; with guinea pig ileal strips [2] (setting [5]) it was 81%.
With `CCCCCc1ccc(C(=O)CCC(=O)O)cc1` [Example 4, 3-(4-n-Pentylbenzoyl)propanoic acid], the inhibition at 100 µM in experiment [1] (5-HETE synthesis) is 65%. Besides, the inhibition at 20 µg/mL in the experiment with guinea pig ileal strips [2] (setting [4]) worked out at 49%; with guinea pig ileal strips [2] (setting [5]), 65%.
As for `CCCCCCOc1ccc(C(=O)CCCCC(=O)O)cc1` [Example 12, 5-(4-n-Hexyloxybenzoyl)pentanoic acid], the inhibition at 100 µM in experiment [1] (5-HETE synthesis) was found to be 75%. Also, the figures for the inhibition at 20 µg/mL with guinea pig ileal strips [2] (setting [4]) and in the experiment with guinea pig ileal strips [2] (setting [5]) were 18% and 70%, respectively.
`CCCCCCCc1ccc(C(=O)CCCCC(=O)O)cc1[N+](=O)[O-]` [Example 7, 5-(3-Nitro-4-n-heptylbenzoyl)pentanoic acid]: the inhibition at 100 µM in experiment [1] (5-HETE synthesis) is 84%. Besides, the inhibition at 75 µM in the experiment with guinea pig ileal strips [3] (setting [4]) is 28%; with guinea pig ileal strips [3] (setting [5]) it was 96%. Also, the values for the IC50 in the experiment on guinea pig ileal strips [3] (setting [6]) and with guinea pig ileal strips [3] (setting [7]) were greater than 75 µM and 14 µM, respectively.
For `CCCCCCCc1ccc(C(=O)CCCCC(=O)O)cc1N` [Example 8, 5-(3-Amino-4-n-heptylbenzoyl)pentanoic acid], in that order: 47%, 48%, 94%, greater than 75 µM and 37 µM.
Consider `CCCCCCCCc1ccc(C(=O)CCCCC(=O)O)cc1` [Example 6, 5-(4-n-Octylbenzoyl)pentanoic acid], for which, in experiment [1] (5-HETE synthesis), the inhibition at 100 µM worked out at 77%. Besides, the inhibition at 75 µM is 0% in the experiment with guinea pig ileal strips [3] (setting [4]) and 63% in the experiment on guinea pig ileal strips [3] (setting [5]).
For `CCCCCCCCCc1ccc(C(=O)CCCCC(=O)O)cc1` [Example 9, 5-(4-n-Nonylbenzoyl)pentanoic acid], the inhibition at 100 µM in experiment [1] (5-HETE synthesis) came to 79%. Besides, the values for the inhibition at 20 µg/mL in the experiment on guinea pig ileal strips [2] (setting [4]) and with guinea pig ileal strips [2] (setting [5]) were 2% and 33%, respectively.
In the case of `CCCCCCCc1ccc(C(=O)[C@@H]2CCCC[C@H]2C(=O)O)cc1` (relative stereo) [Example 23, Trans-2-(4-heptylbenzoyl)cyclohexane-1-carboxylic acid], in experiment [1] (5-HETE synthesis), the inhibition at 100 µM was 70%. For the same compound, the IC50 in experiment [1] is 5 µM; with guinea pig ileal strips [3] (setting [6]), greater than 25 µM; in the experiment on guinea pig ileal strips [3] (setting [7]), 14 µM. For the same compound, the inhibition at 75 µM in the experiment with guinea pig ileal strips [3] (setting [4]) came to 76%; in the experiment on guinea pig ileal strips [3] (setting [5]), 100%.
For `CCCCCc1ccc(C(=O)CCCC(=O)O)cc1` [Example 3, 4-(4-n-Pentylbenzoyl)butanoic acid], in experiment [1] (5-HETE synthesis), the inhibition at 100 µM was 0%. In addition, the inhibition at 20 µg/mL was found to be 47% in the experiment on guinea pig ileal strips [2] (setting [4]) and 65% with guinea pig ileal strips [2] (setting [5]).
For `CCCCCCCCCCCCCCc1ccc(C(=O)CCCCC(=O)O)cc1` [Example 11, 5-(4-n-Tetradecylbenzoyl)pentanoic acid], in that order: 76%, 14% and 1%.
Regarding `CCCCCCCCc1ccc(C(=O)Cc2cccc(C(=O)O)c2)cc1` [Example 19, 3-(4-n-Octylphenacyl)benzoic acid], the inhibition at 100 µM in experiment [1] (5-HETE synthesis) was less than 44%. Further, the inhibition at 75 µM with guinea pig ileal strips [3] (setting [4]) stood at 30%; in the experiment with guinea pig ileal strips [3] (setting [5]), 78%. In addition, the figures for the IC50 in the experiment on guinea pig ileal strips [3] (setting [6]) and in the experiment with guinea pig ileal strips [3] (setting [7]) were greater than 75 µM and 51 µM, respectively.
For `CCCCOc1ccc(C(=O)c2cccc(C(=O)O)c2)c(OC)c1` [Example 25, 3-(4-Butoxy-2-methoxybenzoyl)benzoic acid], in that order: 70%, 46%, 84%, 14 µM and 22 µM.
For the compound `CCCCCCOc1ccc(C(=O)c2cccc(C(=O)O)c2)c(C)c1` [Example 29, 3-(4-n-Hexyloxy-2-methylbenzoyl)-benzoic acid], the inhibition at 100 µM in experiment [1] (5-HETE synthesis) worked out at 88%. Besides, the figures for the inhibition at 75 µM in the experiment with guinea pig ileal strips [3] (setting [4]) and with guinea pig ileal strips [3] (setting [5]) were 38% and 86%, respectively.
For `CCCCCCCc1ccc(C(=O)Cc2ccccc2C(=O)O)cc1` [Example 17, 2-(4-n-Heptylphenacyl)benzoic acid], the inhibition at 100 µM in experiment [1] (5-HETE synthesis) was 80%. For the same compound, the values for the inhibition at 75 µM in the experiment on guinea pig ileal strips [3] (setting [4]) and in the experiment with guinea pig ileal strips [3] (setting [5]) were 100% and 90%, respectively. The IC50 stood at 33 µM in the experiment with guinea pig ileal strips [3] (setting [6]) and 10 µM with guinea pig ileal strips [3] (setting [7]).
